Data as given in patent US9655887B2, “Pharmaceutical composition and the use thereof, and application regime of said pharmaceutical composition for on-demand contraception” (BAYER PHARMA AKTIENGESELLSCHAFT, priority 2013, dated 2017).
Marks after values point to notes of the source that are not given here.

Experiments:
[1] = test system: fertilizability of ovulated cumulus-oocyte complexes; test: In-vivo action on post-ovulatory in-vitro fertilization; design: species or system mice (strain: B6D2F1); conditions: 1-10 mg/kg s.c.
Text: 4.3 In-Vivo Action on Post-Ovulatory In-Vitro Fertilization:
Substances can exert an influence on fertility by decreasing the fertilizability of oocytes or cumulus-oocyte complexes. In order to study such effects, substances can be administered in vivo and subjected to in vitro fertilization after ovulation of cumulus-oocyte complexes has taken place. The in-vitro fertilization rate, where no test substance is any longer present, allows conclusions as to the in-vivo effects of the test substances.
Immature female mice (strain: B6D2F1, Charles River, Suelzfeld, age: 19-25 days) were kept in Macrolon cages in rooms with controlled illumination (12 hrs darkness: 12 hrs light), fed with a standard diet and provided with drinking water ad libitum.
The mice were primed with PMSG (pregnant mare serum gonadotropin) (10 IU/animal i.p.). After 48 hours, a stimulus triggering ovulation was created in the animals by one administration of 10 IU/animal i.p. (hCG, human chorionic gonadotropin). The test substances were dissolved in benzyl benzoate/castor oil (1+4 v/v) and administered in a volume of 0.1 ml s.c. 1 hour before hCG (n=5 animals per group). Fourteen hours after hCG administration, the animals were killed. […] Twenty-four hours after the incubation with the sperms, the number of fertilized oocytes is established and the percentage fertilization rate determined

[2] = test system: fertilizability of oocytes or cumulus-oocyte complexes; test: In-vivo effect on postovulatory in-vitro fertilization in the mouse (2-cell embryos); design: species or system mice (strain: B6D2F1); conditions: vehicle 36.3 ± 9.5
Text: 7. In-Vivo Effect on Postovulatory In-Vitro Fertilization in the Mouse
Substances can influence fertility by lowering fertilizability of oocytes or cumulus-oocyte complexes. To examine such effects, substances can be administered in vivo and, after ovulation of cumulus-oocyte complexes, the latter are subjected to in-vitro fertilization. The in-vitro fertilization rate in the absence of test substance allows conclusions to be drawn on the in-vivo effects of the test substances.
Immature female mice (strain: B6D2F1, Charles River, Suelzfeld, age: 19-25 days) were kept in Makrolon cages in rooms with controlled lighting (12 hours of darkness: 12 hours of light), fed with a standard diet and provided with water ad libitum.
The mice were primed with PMSG (Pregnant Mare Serum Gonadotropin) (10 IU/animal i.p.). After 48 hours, by administration of 10 IU/animal i.p., an ovulation-triggering stimulus (hCG, human Chorion Gonadotropin) was generated in the animals. EP2 receptor antagonists were dissolved in benzyl benzoate/castor oil (1+4 v/v) and administered in a volume of 0.1 ml s.c. 1 hour prior to hCG (n=5 animals per group). The COX inhibitor was suspended in a carrier liquid (85 mg of Myrj®53 polyoxyl(50)stearate; CAS No. 9004-99-3) in 100 ml of 0.9% w/v NaCl solution), and the appropriate dose was administered in a volume of 2 ml/kg of body weight orally 1 hour prior to hCG. Fourteen hours after administration of hCG, the animals were sacrificed. Ovulated oocytes and cumulus-oocyte complexes were obtained from the ovarii bursa and/or the oviduct and subjected to in-vitro fertilization, with a sperm number of 40 000 sperms/0.5 ml for 1 hour being used for fertilization. Twenty-four hours after incubation with the sperms, the number of fertilized oocytes and the number of 2-cell embryos per animal were determined.

[3] = biological target: EP2 subtype of the human PGE2 receptor (hEP2 receptor) (Homo sapiens, UniProt P43116); test: cAMP antagonism test, human prostaglandin E2 (subtype EP2) receptor signal; type: cell-based
Chain of EP2 subtype of the human PGE2 receptor (hEP2 receptor) (P43116 whole entry): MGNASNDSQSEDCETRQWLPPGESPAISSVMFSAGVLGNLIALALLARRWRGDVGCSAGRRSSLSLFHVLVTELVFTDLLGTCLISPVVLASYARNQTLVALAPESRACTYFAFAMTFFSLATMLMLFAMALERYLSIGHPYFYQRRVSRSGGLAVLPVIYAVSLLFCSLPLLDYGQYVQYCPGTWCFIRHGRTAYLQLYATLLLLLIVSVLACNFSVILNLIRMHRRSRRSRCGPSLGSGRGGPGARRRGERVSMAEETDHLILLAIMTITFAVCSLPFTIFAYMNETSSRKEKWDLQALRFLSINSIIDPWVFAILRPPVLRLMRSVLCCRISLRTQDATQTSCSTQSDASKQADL
Procedure, shortened: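 Cells (625000 cells/ml, mixed with cAMP-d2) were preincubated 20 min at RT with compound ([…]). They were then stimulated 60 min at RT with a 3× PGE2 solution (1.5 nM) in PBS-IBMX and lysed for 20 min. cAMP was read by HTRF as the 665/620 nm ratio ×10000, with antagonism seen as a rise in FRET signal.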

ovulation = conditions: cited from earlier work
[4] = test system: fertility of the female rat; test: Single administration of EP2 receptor antagonists and COX inhibitors alone or in combination, fertility of the rat (implantation sites); type: in vivo, female Han Wistar rats
Protocol: 6. Effect of a Single Administration of EP2 Receptor Antagonists and COX Inhibitors Alone or in Combination on the Fertility of the Rat
In the experiments below, female Han Wistar rats having a weight of 200-270 g were used. The animals were kept in Makrolon cages in rooms with controlled lighting (12 hours of darkness; 12 hours of light), fed with a standard diet and provided with water ad libitum.
EP2 receptor antagonists were dissolved in benzyl benzoate/castor oil (1+4 v/v), and the dose was administered in a volume of 1 ml/kg of body weight s.c. Optionally, EP2 receptor antagonists were also administered orally in the same vehicle as the COX inhibitors (see below). […]
The COX inhibitors were suspended in a carrier liquid (85 mg of Myrj®53 polyoxyl(50)stearate; CAS No. 9004-99-3) in 100 ml of 0.9% w/v NaCl solution), and the dose corresponding to the treatment group was administered in a volume of 2 ml/kg of body weight.
Prior to the start of the experiment, two cycles were observed using vaginal swabs. Only animals having a regular 4-day cycle were used in the experiment. The animals were randomized to the treatment groups.
The animals were treated once in the proestrus, the day in the cycle when the LH peak occurs in the evening, with the test substances either alone or in combination. On the evening of the proestrus, the female animals mated with a male rat. Successive mating was confirmed by detection of vaginal sperms in the vaginal swab the next morning. The effect on fertility was determined 9-15 days after mating by the number of implantation sites of the animals. […]

[5] = single administration in proestrus, Indomethacin 1 mg/animal, 16:00
[6] = Table 6.3, proestrus, Piroxicam 2 mg/animal, 12:30
[7] = single administration in proestrus, Piroxicam 2 mg/animal, 7:00
[8] = single administration in proestrus, Piroxicam 2 mg/animal, 13:00
[9] = single administration in proestrus, Piroxicam 2 mg/animal, 18:00, data of n = 5 animals

## COCCNC(=O)c1ccc2nn(CC3CCN(C(=O)c4ccc(Oc5ccc(C(F)(F)F)cc5)cc4)CC3)cc2c1C [Example 17, N-(2-methoxyethyl)-4-methyl-2-[(1-{4-[4-(trifluoromethyl)phenoxy]benzoyl}piperidin-4-yl)methyl]-2H-indazole-5-carboxamide]
[1]
  influence on the fertilizability of ovulated cumulus-oocyte complexes: dose-dependent influence on the fertilizability of ovulated cumulus-oocyte complexes

## Cc1c(C(=O)NCC(F)(F)F)ccc2nn(CC3CCN(C(=O)c4ccc(Oc5ccc(C(F)(F)F)cc5)cc4)CC3)cc12 [Example E126, 4-methyl-N-(2,2,2-trifluoroethyl)-2-[(1-{4-[4-(trifluoromethyl)phenoxy]benzoyl}piperidin-4-yl)methyl]-2H-indazole-5-carboxamide]
[2]; E126 0.1 mg/animal s.c. 1 hour prior to hCG
  2-Cell embryos per animal (mean ± SD): 30.8 ± 7.3
[2]; E126 0.5 mg/animal s.c. 1 hour prior to hCG
  2-Cell embryos per animal (mean ± SD): 12.6 ± 3.6
[3]
  IC50: > 50 nM

## COc1ccc2c(c1)c(CC(=O)O)c(C)n2C(=O)c1ccc(Cl)cc1 [Indomethacin, indomethacin, reference compound]
ovulation; 2×100 mg per day over 5 days (Killick and Elstein 1987)
  effect on ovulation: inhibition of ovulation
ovulation; 3×50 mg per day for at least 3 days, 6 women, in 5 cases (Athanasious et al.)
  delay of ovulation: 2 to 12 days
[4]; [5]
  Absolute implantations number of 6 animals: 67
  Implantations per animal (mean ± SD): 11.2 ± 2.9

## CN1C(C(=O)Nc2ccccn2)=C(O)c2ccccc2S1(=O)=O [Piroxicam, piroxicam, reference compound]
[2]; Piroxicam 0.1 mg/animal orally 1 hour prior to hCG
  2-Cell embryos per animal (mean ± SD): 10.8 ± 3.8
[4]; [6]
  Absolute implantations number of 6 animals: 71
  Implantations per animal (mean ± SD): 11.8 ± 3.7
[4]; [7]
  Absolute implantations number of 6 animals: 81
  Implantations per animal (mean ± SD): 13.5 ± 1.0
[4]; [8]
  Absolute implantations number of 6 animals: 68
  Implantations per animal (mean ± SD): 11.3 ± 1.6
[4]; [9]
  Absolute implantations number of 6 animals: 53*
  Implantations per animal (mean ± SD): 10.6 ± 1.5
